Active and inactive are the calls of the source. The rule behind the calls is not given here.
Legend:
Cholinesterase [1] = molecular target: Cholinesterase (Equus caballus, UniProt P81908)
Description: Inhibition of equine serum BuChE using S-butyrylthiocholine iodide as substrate preincubated for 6 mins followed by substrate addition measured up to 180 secs by spectrophotometric-based Ellman's method

Homo sapiens = species on record: Homo sapiens; test: Selectivity index, ratio of IC50 for human recombinant MAO-A to IC50 for human recombinant MAO-B
Acetylcholinesterase [2] = molecular target: Acetylcholinesterase (Electrophorus electricus, UniProt O42275)
Description: Inhibition of electric eel AChE using acetylthiocholine iodide as substrate preincubated for 6 mins followed by substrate addition measured up to 180 secs by spectrophotometric-based Ellman's method

[3] = molecular target: T1, Amine oxidase [flavin-containing] A (Homo sapiens, UniProt P21397); test: Inhibition of human recombinant MAO-A using p-tyramine substrate at 100 uM after 15 mins by fluorimetric analysis; conditions: 0.25 h
T1 sequence (P21397 whole entry): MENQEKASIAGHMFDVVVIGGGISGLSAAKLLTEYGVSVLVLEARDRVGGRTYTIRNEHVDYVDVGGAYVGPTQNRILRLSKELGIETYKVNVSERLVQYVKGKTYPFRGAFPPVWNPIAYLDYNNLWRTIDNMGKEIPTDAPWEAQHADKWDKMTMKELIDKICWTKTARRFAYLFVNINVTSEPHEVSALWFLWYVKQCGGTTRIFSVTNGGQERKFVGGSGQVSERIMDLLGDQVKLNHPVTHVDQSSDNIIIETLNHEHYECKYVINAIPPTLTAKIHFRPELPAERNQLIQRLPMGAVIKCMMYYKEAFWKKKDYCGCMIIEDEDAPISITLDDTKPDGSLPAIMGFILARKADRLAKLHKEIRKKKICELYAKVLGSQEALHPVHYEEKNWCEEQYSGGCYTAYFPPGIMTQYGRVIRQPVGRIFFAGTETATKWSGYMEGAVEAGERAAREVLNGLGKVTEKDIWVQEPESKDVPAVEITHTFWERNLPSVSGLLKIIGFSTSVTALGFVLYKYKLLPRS

[4] = molecular target: T2, Amine oxidase [flavin-containing] B (Homo sapiens, UniProt P27338)
T2 sequence (P27338 whole entry): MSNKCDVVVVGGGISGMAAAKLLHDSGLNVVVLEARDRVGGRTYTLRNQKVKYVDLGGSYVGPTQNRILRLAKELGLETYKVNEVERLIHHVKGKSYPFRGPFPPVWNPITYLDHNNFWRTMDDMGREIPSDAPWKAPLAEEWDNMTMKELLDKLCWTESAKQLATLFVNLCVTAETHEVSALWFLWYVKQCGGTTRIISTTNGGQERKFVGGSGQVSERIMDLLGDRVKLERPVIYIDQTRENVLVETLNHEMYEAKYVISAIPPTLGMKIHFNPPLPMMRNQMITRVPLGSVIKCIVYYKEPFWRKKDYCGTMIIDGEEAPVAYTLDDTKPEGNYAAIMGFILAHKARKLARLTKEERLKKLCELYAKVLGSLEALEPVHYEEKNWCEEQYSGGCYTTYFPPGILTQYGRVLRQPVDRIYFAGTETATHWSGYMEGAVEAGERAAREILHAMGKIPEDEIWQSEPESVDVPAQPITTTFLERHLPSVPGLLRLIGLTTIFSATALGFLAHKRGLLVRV
Description: Inhibition of human recombinant MAO-B using p-tyramine substrate after 15 mins by fluorimetric analysis

Acetylcholinesterase [5] = molecular target: Acetylcholinesterase (Homo sapiens, UniProt P22303)
Acetylcholinesterase (Homo sapiens, UniProt P22303), sequence (P22303 whole entry): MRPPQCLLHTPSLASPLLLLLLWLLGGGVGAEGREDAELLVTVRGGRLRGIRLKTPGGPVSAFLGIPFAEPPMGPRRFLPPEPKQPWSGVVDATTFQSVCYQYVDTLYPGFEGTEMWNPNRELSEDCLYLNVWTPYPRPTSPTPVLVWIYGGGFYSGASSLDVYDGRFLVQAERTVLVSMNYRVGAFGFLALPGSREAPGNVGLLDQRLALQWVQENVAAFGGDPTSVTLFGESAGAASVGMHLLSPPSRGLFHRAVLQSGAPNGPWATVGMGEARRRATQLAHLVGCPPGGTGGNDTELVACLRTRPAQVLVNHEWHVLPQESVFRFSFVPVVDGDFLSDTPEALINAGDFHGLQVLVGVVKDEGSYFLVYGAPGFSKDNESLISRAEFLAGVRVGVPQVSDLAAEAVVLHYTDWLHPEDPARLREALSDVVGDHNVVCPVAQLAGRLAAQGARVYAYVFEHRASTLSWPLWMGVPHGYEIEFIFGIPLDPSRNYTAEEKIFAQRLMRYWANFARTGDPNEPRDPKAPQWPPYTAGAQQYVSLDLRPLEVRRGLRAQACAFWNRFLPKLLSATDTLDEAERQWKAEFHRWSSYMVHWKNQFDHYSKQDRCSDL
Description: Inhibition of human erythrocyte AChE using acetylthiocholine iodide as substrate preincubated for 6 mins followed by substrate addition measured up to 180 secs by spectrophotometric-based Ellman's method

Cholinesterase [6] = molecular target: Cholinesterase (Homo sapiens, UniProt P06276)
Cholinesterase (Homo sapiens, UniProt P06276), sequence (P06276 whole entry): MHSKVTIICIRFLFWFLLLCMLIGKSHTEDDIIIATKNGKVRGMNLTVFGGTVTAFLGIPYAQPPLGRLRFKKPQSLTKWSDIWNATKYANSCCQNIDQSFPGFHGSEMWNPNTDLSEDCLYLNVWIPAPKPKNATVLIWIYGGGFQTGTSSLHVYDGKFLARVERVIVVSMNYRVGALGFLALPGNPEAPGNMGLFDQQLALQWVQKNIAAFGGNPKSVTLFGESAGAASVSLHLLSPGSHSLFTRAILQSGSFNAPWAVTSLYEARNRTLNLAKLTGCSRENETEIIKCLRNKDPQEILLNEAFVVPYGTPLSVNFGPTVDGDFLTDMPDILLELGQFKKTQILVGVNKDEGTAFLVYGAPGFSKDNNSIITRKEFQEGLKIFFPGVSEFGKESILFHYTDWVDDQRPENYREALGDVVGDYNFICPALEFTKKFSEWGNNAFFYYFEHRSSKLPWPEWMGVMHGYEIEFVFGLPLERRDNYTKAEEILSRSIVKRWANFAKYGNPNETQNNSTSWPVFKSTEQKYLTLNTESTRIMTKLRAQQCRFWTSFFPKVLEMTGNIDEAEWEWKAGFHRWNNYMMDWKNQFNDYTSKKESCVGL
Description: Inhibition of human serum BuChE using S-butyrylthiocholine iodide as substrate preincubated for 6 mins followed by substrate addition measured up to 180 secs by spectrophotometric-based Ellman's method

[7] = Hepatotoxicity against human HepG2 cells assessed as cell viability at 6.25 uM after 24 hrs by MTT assay; format: toxicity, cell-based; conditions: read-out: Activity
[8] = Cytotoxicity against human SH-SY5Y cells assessed as cell viability at 1 uM after 24 hrs by MTT assay; format: cell-based; conditions: read-out: Activity
[9] = molecular target: Cholinesterase (Equus caballus) (UniProt P81908); conditions: 0.44 to 1.74 uM
Cholinesterase (Equus caballus), sequence (P81908 whole entry): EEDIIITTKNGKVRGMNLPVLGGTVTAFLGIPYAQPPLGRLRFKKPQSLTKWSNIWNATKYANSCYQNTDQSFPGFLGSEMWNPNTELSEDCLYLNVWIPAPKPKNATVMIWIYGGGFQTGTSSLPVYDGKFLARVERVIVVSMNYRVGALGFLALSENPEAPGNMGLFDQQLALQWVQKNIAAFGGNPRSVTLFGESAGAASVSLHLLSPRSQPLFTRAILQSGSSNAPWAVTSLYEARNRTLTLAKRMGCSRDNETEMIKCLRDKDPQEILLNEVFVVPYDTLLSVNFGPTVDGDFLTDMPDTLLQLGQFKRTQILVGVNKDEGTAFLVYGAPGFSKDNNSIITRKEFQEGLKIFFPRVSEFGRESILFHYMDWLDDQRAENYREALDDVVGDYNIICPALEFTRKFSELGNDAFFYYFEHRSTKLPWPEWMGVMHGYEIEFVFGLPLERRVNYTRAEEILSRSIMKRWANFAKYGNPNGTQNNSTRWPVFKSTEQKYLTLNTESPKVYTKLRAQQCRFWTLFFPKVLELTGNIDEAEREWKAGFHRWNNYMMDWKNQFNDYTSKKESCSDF

[10] = molecular target: Acetylcholinesterase (Electrophorus electricus) (UniProt O42275); test: Mixed type inhibition of electric eel AChE using acetylthiocholine iodide as substrate at 0.44 to 1.74 uM preincubated for 6 mins followed by substrate addition measured up to 180 secs by Lineweaver-Burk reciprocal plot analysis
Acetylcholinesterase (Electrophorus electricus), sequence (O42275 24-633 limits assumed): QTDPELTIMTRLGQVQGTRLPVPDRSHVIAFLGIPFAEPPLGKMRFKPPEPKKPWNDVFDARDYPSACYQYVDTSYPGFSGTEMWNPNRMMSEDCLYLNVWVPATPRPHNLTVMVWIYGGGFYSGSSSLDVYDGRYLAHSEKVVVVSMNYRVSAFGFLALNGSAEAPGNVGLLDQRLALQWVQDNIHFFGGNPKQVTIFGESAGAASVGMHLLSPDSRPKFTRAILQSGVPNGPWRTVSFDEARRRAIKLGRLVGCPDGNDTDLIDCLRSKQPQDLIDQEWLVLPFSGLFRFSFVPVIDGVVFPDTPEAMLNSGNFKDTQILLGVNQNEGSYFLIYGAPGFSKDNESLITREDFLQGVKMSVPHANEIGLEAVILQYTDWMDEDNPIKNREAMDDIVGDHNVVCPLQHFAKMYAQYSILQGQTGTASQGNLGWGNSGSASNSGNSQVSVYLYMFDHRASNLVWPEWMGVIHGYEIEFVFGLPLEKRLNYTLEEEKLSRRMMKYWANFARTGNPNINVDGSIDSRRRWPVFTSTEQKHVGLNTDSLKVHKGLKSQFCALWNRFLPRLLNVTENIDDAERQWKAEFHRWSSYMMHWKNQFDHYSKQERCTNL

[11] = Cytotoxicity against human SH-SY5Y cells assessed as cell viability at 25 uM after 24 hrs by MTT assay; format: cell-based; conditions: read-out: Activity
[12] = Hepatotoxicity against human HepG2 cells assessed as cell viability at 25 uM after 24 hrs by MTT assay; format: toxicity, cell-based; conditions: read-out: Activity
[13] = Cytotoxicity against human SH-SY5Y cells assessed as cell viability at 50 uM after 24 hrs by MTT assay; format: cell-based; conditions: read-out: Activity
[14] = Cytotoxicity against human SH-SY5Y cells assessed as cell viability at 5 uM after 24 hrs by MTT assay; format: cell-based; conditions: read-out: Activity
in vitro = conditions: PAMPA, pH 7.4
Description: Permeability of the compound at 25 ug/ml at pH 7.4 after 16 hrs by PAMPA

[15] = Cytotoxicity against human SH-SY5Y cells assessed as cell viability at 10 uM after 24 hrs by MTT assay; format: cell-based; conditions: read-out: Activity
[16] = Hepatotoxicity against human HepG2 cells assessed as cell viability at 50 uM after 24 hrs by MTT assay; format: toxicity, cell-based; conditions: read-out: Activity
[17] = molecular target: T2, Amine oxidase [flavin-containing] B; test: Reversible inhibition of human recombinant MAO-B assessed as enzyme recovery using p-tyramine substrate at 100 times IC50 preincubated for 30 mins followed by 100 fold dilution by fluorimetric analysis relative to control; set-up: scale not given: the % may be the effect or the level left
[18] = molecular target: T2, Amine oxidase [flavin-containing] B; test: Competitive inhibition of human recombinant MAO-B using p-tyramine substrate at 1.5 to 6 uM after 15 mins by Lineweaver-Burk reciprocal plot analysis; conditions: 0.25 h
[19] = Hepatotoxicity against human HepG2 cells assessed as cell viability at 12.5 uM after 24 hrs by MTT assay; format: toxicity, cell-based; conditions: read-out: Activity

Acetylcholinesterase (Electrophorus electricus, UniProt O42275), sequence (O42275 whole entry): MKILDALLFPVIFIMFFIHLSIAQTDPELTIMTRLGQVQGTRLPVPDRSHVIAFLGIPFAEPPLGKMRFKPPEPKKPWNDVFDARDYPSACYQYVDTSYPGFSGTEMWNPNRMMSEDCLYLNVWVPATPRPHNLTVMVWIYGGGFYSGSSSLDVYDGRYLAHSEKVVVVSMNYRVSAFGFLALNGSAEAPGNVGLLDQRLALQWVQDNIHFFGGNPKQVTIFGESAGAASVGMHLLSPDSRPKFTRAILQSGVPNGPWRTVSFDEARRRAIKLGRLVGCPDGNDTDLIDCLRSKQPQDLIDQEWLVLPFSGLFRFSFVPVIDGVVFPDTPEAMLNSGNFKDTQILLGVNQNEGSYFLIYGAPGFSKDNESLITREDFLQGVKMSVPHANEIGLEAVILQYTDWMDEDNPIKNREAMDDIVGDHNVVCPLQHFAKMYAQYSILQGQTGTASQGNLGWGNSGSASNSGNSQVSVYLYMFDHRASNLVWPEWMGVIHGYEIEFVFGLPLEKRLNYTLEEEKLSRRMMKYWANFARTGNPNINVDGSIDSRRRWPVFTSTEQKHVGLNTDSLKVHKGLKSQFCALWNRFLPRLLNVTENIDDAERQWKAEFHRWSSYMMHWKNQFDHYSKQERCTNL
Cholinesterase (Equus caballus, UniProt P81908), sequence (P81908 whole entry): as the sequence (P81908 whole entry) above

SMILES	IC50 (Cholinesterase [1]) [µM]	Ratio IC50 (Homo sapiens)	IC50 (Acetylcholinesterase [2]) [µM]	inhibition (INH) [3]	IC50 [4] [µM]	IC50 (Acetylcholinesterase [5]) [µM]	IC50 (Cholinesterase [6]) [µM]	further results
O=c1cc(-c2ccccc2)c2ccc(OCCNC3CCN(Cc4ccccc4)CC3)cc2o1	8.93	> 2.19	9.65	Not Active	45.6			
CCOc1cc(=O)oc2cc(OCCNC3CCN(Cc4ccccc4)CC3)ccc12	6.95	> 3.13	6.34	Not Active	31.9			
O=c1cc(Cl)c2ccc(OCCNC3CCN(Cc4ccccc4)CC3)cc2o1	1.48	> 2.95	1.5	Not Active	33.9	2.04	2.93	
O=c1cc(C(F)(F)F)c2ccc(OCCNC3CCN(Cc4ccccc4)CC3)cc2o1	10.2	> 3.51	9.18	Not Active	28.5			
O=c1ccc2ccc(OCCNC3CCN(Cc4ccccc4)CC3)cc2o1	5.34	> 11.9	4.42	Not Active	8.39			
O=c1ccc2ccc(OCCNCCC3CCN(Cc4ccccc4)CC3)cc2o1	9.79	> 3.29	8.91	Not Active	30.4			
COc1cc(=O)oc2cc(OCCNC3CCN(Cc4ccccc4)CC3)ccc12	5.64	> 2.98	6.29	Not Active	33.6			
Cc1cc2ccc(OCCNC3CCN(Cc4ccccc4)CC3)cc2oc1=O	7.53	> 42	6.03	Not Active	2.38			
Cc1cc(=O)oc2cc(CNC3CCN(Cc4ccccc4)CC3)ccc12	10.8	> 51.8	7.28	Not Active	1.93			
O=c1oc2cc(OCCNC3CCN(Cc4ccccc4)CC3)ccc2c2c1CCCC2	0.93	> 38.2	0.87	Not Active	2.62	1.37	1.98	viability at 24 h, 6.25 µM [7]: 101%; viability at 24 h, 1 µM [8]: 99.6%; inhibition [9]: Active; inhibition [10]: Active; viability at 24 h, 25 µM [11]: 94.6%; viability at 24 h, 25 µM [12]: 105%; viability at 24 h, 50 µM [13]: 92.6%; viability at 24 h, 5 µM [14]: 102%; Papp at 16 h, 25 ug/ml (in vitro): 16.2 ×10⁻⁶ cm/s; viability at 24 h, 10 µM [15]: 97.5%; viability at 24 h, 50 µM [16]: 104%; Activity [17]: 47%; inhibition (INH) [18]: Active; viability at 24 h, 12.5 µM [19]: 101%
O=c1ccc2ccc(OCCCNC3CCN(Cc4ccccc4)CC3)cc2o1	9.86	> 7.94	11.7	Not Active	12.6			
Cc1c(Cl)c(=O)oc2cc(OCCNC3CCN(Cc4ccccc4)CC3)ccc12	1.42	> 6.8	1.58	Not Active	14.7	1.82	1.68	
Cc1cc(=O)oc2cc(OCCNC3CCN(Cc4ccccc4)CC3)ccc12	4.38	> 36.4	5.62	Not Active	2.75			
Cc1c(C)c2ccc(OCCNC3CCN(Cc4ccccc4)CC3)cc2oc1=O	1.67	> 4.27	1.48	Not Active	23.4	1.69	2.67	
Cc1cc(=O)oc2cc(CNCCC3CCN(Cc4ccccc4)CC3)ccc12	0.96	> 2.47	0.91	Not Active	40.5	0.067	3.45	

Source: ChEMBL document CHEMBL3763139, “Design, synthesis and biological evaluation of novel donepezil-coumarin hybrids as multi-target agents for the treatment of Alzheimer's disease” (Bioorg Med Chem, 2016)
